The text below walks through data of patent publication US12692248B2, “Solid state forms of (S)-N-(3-(2-(((R)-1-hydroxypropan-2-yl)amino)-6-morpholinopyridin-4-yl)-4-methylphenyl)-3-(2,2,2-trifluoroethyl)pyrrolidine-1-carboxamide and salts thereof” (PIERRE FABRE MEDICAMENT, priority 2021, dated 2026).

≈ marks a conversion by molar mass, not a printed value. Where two headings read alike, the source gives them in different places.

Common to all, as to type: physicochemical
Series [1] can be described thus: Dynamic Vapor Sorption (DVS). Particulars: for water uptake at 80% RH: 80% relative humidity. On the procedure:
Dynamic Vapor Sorption (DVS) Moisture sorption/desorption data was collected on a DVS Intrinsic PLUS (SMS, UK). The sample was placed into a tared sample chamber and automatically weighed. The sample was dried at 40° C./0%0 RH until the dm/dt was less than 0.00200 and cooled to 25° C. [table]

Series [2] in a line: Slurry experiments of amorphous hydrochloride. As to conditions: one day, XRPD. On the procedure:
An amorphous solid state form of (S)—N-(3-(2-(((R)-1-hydroxypropan-2-yl)amino)-6-morpholinopyridin-4-yl)-4-methylphenyl)-3-(2,2,2-trifluoroethyl)pyrrolidine-1-carboxamide hydrochloride is attainable. Amorphous (S)—N-(3-(2-(((R)-1-hydroxypropan-2-yl)amino)-6-morpholinopyridin-4-yl)-4-methylphenyl)-3-(2,2,2-trifluoroethyl)pyrrolidine-1-carboxamide hydrochloride was formed by rapid evaporation of 15 mg of Compound 2 dissolved in 0.5 mL of methanol. The solid was confirmed to be amorphous by XRPD. Slurry of amorphous (S)—N-(3-(2-(((R)-1-hydroxypropan-2-yl)amino)-6-morpholinopyridin-4-yl)-4-methylphenyl)-3-(2,2,2-trifluoroethyl)pyrrolidine-1-carboxamide hydrochloride in 0.5 mL of the solvents in Table 13 were prepared. Each suspension was stirred for one day at 50° C. and at RT. Each suspension was filtered and analyzed by XRPD. In each experiment, conversion from amorphous (S)—N-(3-(2-(((R)-1-hydroxypropan-2-yl)amino)-6-morpholinopyridin-4-yl)-4-methylphenyl)-3-(2,2,2-trifluoroethyl)pyrrolidine-1-carboxamide hydrochloride to crystalline Compound 2 was observed.

Series [3] in a line: Solubility of Compound 1 in solvents. The protocol:
Compound 1 is insoluble in n-heptane and water (<1 mg/mL) and soluble (>100 mg/mL) in methanol, ethanol, acetone, tetrahydrofuran, methyl ethyl ketone, ethyl acetate, acetonitrile, isobutanol, isopropyl alcohol and isopropyl acetate. Compound 1 has a solubility of about 60 mg/mL in methyl t-butyl ether.

The nature of series [4]: Comparison dissolution trials in water and biorelevant media. Particulars: for solubility at 0.5 h: read-out: Solubility (mg/mL) 0.5 h; for solubility at 2 h: read-out: Solubility (mg/mL) 2 h; for solubility at 24 h: read-out: Solubility (mg/mL) 24 h. The protocol: Comparison dissolution trials were performed on Compounds 1 and 2. About 20 mg of each sample was weighed into a sample vial and then 4 mL of media was added to make a suspension. All suspensions were shaken at 37° C. with a rate of 200 rpm. […] He pH of the filtrate was measured, and the filter cake was analyzed by XRPD. […] In biorelevant dissolution media FaSSIF and FeSSIF, the solubility of the Compound 1 and Compound 2 were similar.

A short description of series [5]: Stability at 60° C. and 40° C. at 75% relative humidity for 9 days (UPLC purity, XRPD). As to conditions: for Purity −3 d: 3 days; for Purity −9 d: 9 days; for XRPD: crystal form check. On the procedure: Compound 1 and Compound 2 were evaluated for stability at 60° C. and 40° C. at 75% relative humidity for 9 days. At 0, 3, and 9 days, the samples were dissolved with diluent to prepare a solution for purity analysis by UPLC. Solid samples were also analyzed by XRPD to check the crystal form.

Setting [6] is: simulated gastric fluid, thermodynamic from solid, SGF, 37° C.
The mark [7] stands for this setting: thermodynamic from solid, FaSSIF, 37° C.
Setting [8] is: thermodynamic from solid, FeSSIF, 37° C.
Setting [9] is: thermodynamic from solid, Water, 37° C.

For the molecule `Br.Cc1ccc(NC(=O)N2CC[C@@H](CC(F)(F)F)C2)cc1-c1cc(N[C@H](C)CO)nc(N2CCOCC2)c1` [Compound 3, (S)—N-(3-(2-(((R)-1-hydroxypropan-2-yl)amino)-6-morpholinopyridin-4-yl)-4-methylphenyl)-3-(2,2,2-trifluoroethyl)pyrrolidine-1-carboxamide hydrobromide], the hygroscopicity entry in series [1] (DVS) was “slightly hydroscopic”. For the same molecule, in series [1] (DVS, 25° C.), the “water uptake at 80% RH” value stood at 0.27%. In addition, the “water uptake at 90% relative humidity” value in series [1] (DVS, 25° C., 90% relative humidity) was determined as 0.45%.
Turning to `Cc1ccc(NC(=O)N2CC[C@@H](CC(F)(F)F)C2)cc1-c1cc(N[C@H](C)CO)nc(N2CCOCC2)c1.Cl` [amorphous Compound 2, (S)—N-(3-(2-(((R)-1-hydroxypropan-2-yl)amino)-6-morpholinopyridin-4-yl)-4-methylphenyl)-3-(2,2,2-trifluoroethyl)pyrrolidine-1-carboxamide hydrochloride], the “Resulting Solid State Form” value in series [2] (slurry in Acetone, 50° C.) is “Form I”; in series [2] (slurry in Acetone, RT), “Form I”; in series [2] (slurry in Ethanol, 50° C.) it was “Form I”; in series [2] (slurry in Ethanol, RT), “Form I”; in series [2] (slurry in Ethyl acetate, 50° C.), “Form I”; in series [2] (slurry in Ethyl acetate, RT), “Form I”. The “Resulting Solid State Form” value in series [2] (slurry in Water, 50° C.) was “Form I”; in series [2] (slurry in Water, RT) it was “Form I”; in series [2] (slurry in n-Heptane, 50° C.), “Form I”; in series [2] (slurry in n-Heptane, RT), “Form I”.
Regarding `Cc1ccc(NC(=O)N2CC[C@@H](CC(F)(F)F)C2)cc1-c1cc(N[C@H](C)CO)nc(N2CCOCC2)c1` [Compound 1, (S)—N-(3-(2-(((R)-1-hydroxypropan-2-yl)amino)-6-morpholinopyridin-4-yl)-4-methylphenyl)-3-(2,2,2-trifluoroethyl)pyrrolidine-1-carboxamide], the hygroscopicity result in series [1] (DVS) is “slightly hygroscopic”. Moreover, in series [1] (DVS, 25° C.), the “water uptake at 80% RH” value is on record as 2%. Besides, in series [1] (after DVS testing), the “solid form after DVS testing” value was “remained amorphous”. The solubility in series [3] (acetone, organic solvent or mixture) is over 100000 µg/mL; in series [3] (acetonitrile, organic solvent or mixture), over 100000 µg/mL; in series [3] (ethanol, organic solvent or mixture), over 100000 µg/mL; in series [3] (ethyl acetate, organic solvent or mixture) it was over 100000 µg/mL; in series [3] (isobutanol, organic solvent or mixture) it was over 100000 µg/mL; in series [3] (isopropyl acetate, organic solvent or mixture), over 100000 µg/mL. The solubility was over 100000 µg/mL in series [3] (isopropyl alcohol, organic solvent or mixture); over 100000 µg/mL in series [3] (methanol, organic solvent or mixture); over 100000 µg/mL in series [3] (methyl ethyl ketone, organic solvent or mixture); about 60000 µg/mL (≈ 115000 µM) in series [3] (methyl t-butyl ether, organic solvent or mixture); under 1000 µg/mL in series [3] (n-heptane, organic solvent or mixture); over 100000 µg/mL in series [3] (tetrahydrofuran, organic solvent or mixture). For the same molecule, the solubility is under 1000 µg/mL in series [3] (water) and under 9 µg/mL in series [4] (thermodynamic from solid, water, 37° C.). Besides, the solid form conversion entry in series [4] (FaSSGF, filter cake by XRPD) was “converted to Compound 2”. Moreover, the “solubility of Compound 1 and Compound 2 compared” value in series [4] (FaSSIF and FeSSIF) is on record as “similar”. For the same molecule, the “pH of the filtrate” value in series [4] (Water medium) is “(pH 6.4)”. The solubility at 0.5 h is 0.48 mg/mL (≈ 920 µM) in series [4] (setting [6]), 0.024 mg/mL (≈ 46 µM) in series [4] (setting [7]), 0.15 mg/mL (≈ 288 µM) in series [4] (setting [8]) and 0.004 mg/mL (≈ 7.67 µM) in series [4] (setting [9]). Besides, the solubility at 2 h in series [4] (setting [6]) was 0.35 mg/mL (≈ 671 µM); in series [4] (setting [7]), 0.022 mg/mL (≈ 42.2 µM); in series [4] (setting [8]), 0.17 mg/mL (≈ 326 µM); in series [4] (setting [9]), 0.004 mg/mL (≈ 7.67 µM). Moreover, the solubility at 24 h in series [4] (setting [6]) was 0.83 mg/mL (≈ 1590 µM); in series [4] (setting [7]), 0.018 mg/mL (≈ 34.5 µM); in series [4] (setting [8]) it was 0.15 mg/mL (≈ 288 µM); in series [4] (setting [9]) it was 0.009 mg/mL (≈ 17.3 µM). In addition, in series [5] (0 days (initial), UPLC), the “Purity −0 d (Area %)” value turned out to be 99.43 Area %. Further, the “Purity −3 d” value amounted to 99.42 Area % in series [5] (40° C./75% RH, UPLC) and 99.39 Area % in series [5] (60° C., UPLC). Moreover, the “Purity −9 d” value is listed as 99.40 Area % in series [5] (40° C./75% RH, UPLC) and 99.42 Area % in series [5] (60° C., UPLC). In addition, the XRPD entry in series [5] (40° C./75% RH) and in series [5] (60° C.) was “No change” throughout.
